Assay results taken from patent US8835474B2, “Remedy for overactive bladder comprising acetic acid anilide derivative as the active ingredient” (Astellas Pharma Inc., priority 2002, dated 2014).

Experiments:
[1] = system: isolated rat bladder smooth muscle; assay: Isolated rat bladder smooth muscle relaxation test, antagonism test to contraction by carbachol; type: cell-based; conditions: for EC50: Rattus norvegicus; for EC50 / Maximum Relaxation Rate: contraction by 10^−6 M carbachol, relaxation by 10^−4 M papaverine defined as 100%; for Comparison of Action Strength: compared in the concentration giving a relaxation rate of 15.7%, CGP-12,177A = 1; for Concentration where the compound showed a relaxation rate of 15.7%: maximum relaxation rate of CGP-12,177A
Description: (§1) The test was conducted by referring to The Journal of Urology, 1999, volume 161, page 680.
(§2) Male rats of Wistar strain of 10 to 11 weeks age were sacrificed by depletion, whole bladder was isolated by laparotomy and bladder sections each being in a size of about 3×10 mm were prepared in a nutrient solution which was well oxygenated with 95% O2 and 5% CO2 (Krebs-Henseleit solution (118.4 mM NaCl, 4.7 mM KCl, 1.2 mM KH2PO4; 1.2 mM MgSO4, 2.5 mM CaCl2, 25.0 mM NaHCO3 and 11.1 mM glucose)). The section was hung in a Magnus tube in which a nutrient solution (Krebs-Henseleit solution) of 37° C. into which 95% O2 and 5% CO2 were aerated, stabilized for 30 to 60 minutes with a load of 1 g and 10^−6 M carbachol (CCh) or 40 mM potassium chloride (KCl) was repeatedly applied thereto whereupon it was confirmed that reactivity to CCh or KCl became almost constant. After contraction by 10^−6 M CCh or 40 mM KCl was induced and the generated tension was stabilized, a test drug (compound A or CGP-12, 177A) was cumulatively administered in 10-fold ratio with intervals of about 10 minutes and the relaxation reaction was observed. After completion of observation of relaxation reaction at maximum concentration of the test drug, 10^−4 M papaverine was added to induce the maximum relaxation and a relaxation rate was calculated where the relaxation reaction was defined as 100%.

[2] = system: isolated rat bladder smooth muscle; assay: Isolated rat bladder smooth muscle relaxation test, antagonism test to contraction by potassium chloride; type: cell-based; conditions: for EC50: Rattus norvegicus; for EC50 / Maximum Relaxation Rate: contraction by 40 mM potassium chloride, relaxation by 10^−4 M papaverine defined as 100%; for Comparison of Action Strength: compared in the concentration giving a relaxation rate of 17.4%, CGP-12,177A = 1; for Concentration where the compound showed a relaxation rate of 17.4%: maximum relaxation rate of CGP-12,177A
Description: as §1, §2

[3] = system: cyclophosphamide-induced overactive bladder model rat; assay: Measurement of urination function of overactive bladder model rat induced by cyclophosphamide; type: in vivo; conditions: 1 mg/kg i.v.; 30 minutes after administration versus 30 minutes before
Description: Overactive bladder model rats induced by cyclophosphamide were prepared by referring to British Journal of Pharmacology, 2000, volume 130, page 331 and the following test was conducted. Female rats (220 to 230 g) of Wistar strain were used for the test. Under anesthetization with pentobarbital sodium, a catheter for infusion of physiological saline solution and for measurement of pressure in bladder was inserted into bladder from the top of the bladder and fixed while a catheter for administration of a drug was inserted into carotid vein and fixed. Cyclophosphamide (CYP) was administered into abdominal cavity and, after being recovered, the rats were returned to a feeding cage. On the next day of the operation, one end of the catheter inserted into bladder of the rat was connected to a syringe pump via a three-way cock and a physiological saline solution was continuously infused whereby |micturition| reflex was induced. Another end was connected to a pressure transducer and pressure in the bladder was measured. After the micturition reflex was stabilized, 1 mg/kg of the compound A was administered from a catheter for administration of drug which was inserted into carotid vein. Parameter for the evaluation was an average interval for urination from administration of the drug until 30 minutes thereafter. […]

[4] = system: rhythmic bladder contraction; assay: Rat rhythmic bladder contraction measurement test; type: in vivo
Description: The test was conducted by referring to European Journal of Pharmacology, 2000, volume 407, page 175. Female rats (225 to 290 g) of Wistar strain was used for the test. Under anesthetization with urethane, right and left ureters were ligated and cut and, after that, a polyethylene cannula was inserted from external urinary meatus and fixed. One end of the fixed cannula was connected to a pressure transducer via a three-way cock and pressure in the bladder was measured. Another end thereof was connected to a syringe pump and a physiological saline solution was continuously infused at a constant rate into bladder whereupon rhythmic bladder contraction was induced. The continuous infusion of a physiological saline solution was stopped after a rhythmic bladder contraction was noted. After the rhythmic bladder contraction was stabilized, drug or vehicle was administered from a catheter for administration of drug inserted into femoral vein. The compound A was intravenously administered in increased doses where the ratio was 3 (0.03, 0.1, 0.3, 1 and 3 mg/kg). A group to which vehicle was administered was used as a control group. Parameters for evaluation were number of times and contraction pressure of bladder contraction during 10 minutes from 5 to 15 minutes after the administration of the drug and each group was conducted in n=5. The result is shown in terms of mean value±standard error and Student t-test was conducted for comparison between the two groups.

[5] = contraction by potassium chloride

SMILES	EC50 [1] [µM]	Maximum Relaxation Rate [1] [%]	Comparison of Action Strength ([1]; contraction by carbachol)	Concentration where the compound showed a relaxation rate of 15.7% ([1]; contraction by carbachol)	EC50 [2] [µM]	Maximum Relaxation Rate [2] [%]	Comparison of Action Strength [2, 5]	Concentration where the compound showed a relaxation rate of 17.4% [2, 5]	elongation of micturition interval [3] [%]	relaxation action ([1]; antagonism test to contraction by carbachol)	action strength as compared with CGP-12,177A ([1]; contraction by carbachol) [fold]	action of decreasing the contraction frequency versus control group ([4]; 3 mg/kg i.v., Student t-test, p<0.05)	contraction frequency of rhythmic bladder contraction ([4]; i.v. 0.03, 0.1, 0.3, 1 and 3 mg/kg, 5 to 15 minutes after administration, anesthetized female Wistar rats)	contraction pressure of rhythmic bladder contraction ([4]; until intravenous administration of 3 mg/kg)	relaxation action ([2]; antagonism test to contraction by potassium chloride)	action strength as compared with CGP-12,177A [2, 5] [fold]
CC(C)(C)NC[C@H](O)COc1cccc2[nH]c(=O)[nH]c12 [CGP-12, 177A, reference compound]	> 100	15.7	1	10^−4 M	> 100	17.4	1	10^−4 M								
Nc1nc(CC(=O)Nc2ccc(CCNC[C@H](O)c3ccccc3)cc2)cs1 [Compound A, (R)-2-(2-aminothiazol-4-yl)-4′-[2-[(2-hydroxy-2-phenylethyl)amino]-ethyl]acetic acid anilide]	5.2	94.0	270	3.7e-07 M	11	69.1	383	2.6e-07 M	17.3	strong relaxation action	270	significant	decreased on a dose-dependent manner	did not affect	strong relaxation action	383
